Measurements: patent publication US20260234164A1, “BIPHENYL COMPOUND AS IMMUNOMODULATOR, PREPARATION METHOD THEREFOR AND USE THEREOF” (SHENZHEN CHIPSCREEN BIOSCIENCES CO., LTD., priority 2021, published 2026)

test system: PD-1/PD-L1-mediated T cell activation inhibitory signal; assay: CHO-PD-L1-CD3L / Jurkat-PD-1-NFAT co-culture luciferase reporter assay; type: cell-based; conditions: Homo sapiens, co-culture 6 h, read-out: EC50 blocking PD-1/PD-L1-mediated T cell activation inhibitory signal
Protocol: In order to detect the effect of the interaction between PD-1 and PD-L1 on T cell activation signals in the immune response, CHO-PD-L1-CD3L cells stably expressing human PD-L1 molecules and anti-CD3 single-chain antibody (ScFv) and Jurkat-PD-1-NFAT cells stably expressing human PD-1 molecule and NFAT reporter gene were constructed. When the two kinds of cells were co-incubated, the binding of anti-CD3ScFv on the surface of CHO cells and the membrane CD3 molecules of Jurkat cells would transmit an activation signal to Jurkat cells, but simultaneously, the binding of PD-L1 on the surface of CHO cells and PD-1 molecules on the surface of Jurkat cells would transmit an inhibitory signal inward to prevent expression of the luciferase reporter gene. When immune checkpoint antibodies or small molecule inhibitors were added, the binding of PD-1 and PD-L1 was blocked, the NFAT pathway activated by T cell activation signal mediated by cross-linking of CD3ScFv antibody and CD3 was no longer affected by the inhibitory signal, and the downstream luciferase reporter gene started to be expressed. A chemiluminescent signal proportional to reporter gene activation was detected by adding a catalytic substrate.
CHO-PD-L1-CD3L cells expressing human PD-L1 molecule and anti-CD3 single-chain antibody (ScFv) and Jurkat-PD-1-NFAT cells stably expressing human PD-1 molecule and NFAT reporter gene were independently constructed and provided by Dr. Chen Bo (KeyMed Bioscience (Chengdu) Co., Ltd.). Puromycin (Cat #540411) and Hygromycin B (Cat #V900372) for stable culture of transfected cells were purchased from Sigma, PMA (Cat #P1585) was purchased from Sigma, anti-human PD-L1 antibody (Cat #GMP-A066) was purchased from Novoprotein Company. Luciferase substrate solution (Cat #E6485) and luciferase-specific cell lysis solution 5× (Cat #E1531) were purchased from Promega. Fluorescence detection instrument Tecan (Spark 10M) was purchased from Switzerland Tecan Company.
(1) The day before the experiment, 100 μL of CHO-PD-L1-CD3L cells were inoculated in each well of a 96-well cell culture plate (about 4×10^4 cells/well) with a medium of DMEM/F12 containing 10% FBS, 8 μg/mL puromycin and 200 μg/mL hygromycin B, and cultured overnight at 37° C.
(2) The test compounds were diluted with 0.1% PBST into different concentration gradients, added into 96-well plates, and pre-incubated for 30 min. Jurkat-PD-1-NFAT cell count was adjusted to 2×10^5 cells/mL with the RPMI 1640 complete medium containing 10% FBS, […]8 μg/mL puromycin and 200 μg/mL hygromycin B. 100 ng/mL PMA (the stock solution was prepared with DMSO to a concentration of 10 mg/mL) was added to amplify T cell activation signal. 100 μL of the above Jurkat-PD-1-NFAT cells was added to each well of the 96-well plate for co-culture.
(3) When detecting the reaction, a control group was provided, including a solvent control without adding test compounds and a positive control with addition of anti-human PD-1 antibody as the experimental system. All detections were performed with duplicates.
(4) After continuous incubation at 37° C. for 6 h, 40 μL of 5× cell lysate was directly added, and mixed well. The plate was placed at room temperature for 10 min to completely lyse the cells. 50 μL of the lysed cell solution was transferred to a fluorescence detection plate, and added with 30 μL of luciferase substrate solution. The chemiluminescence detection program on the fluorescence detector was immediately selected for detection.
(5) The inhibition rate of T cell activation signal at the cellular level of the test compounds was calculated as follows: Inhibition rate of T cell activation signal (%)=(the original value of chemiluminescence in the detection well−solvent control)/(the highest original value of chemiluminescence detected in the compound detection well−solvent control)×100%. […]

| EC50 | SMILES |
| --- | --- |
| 26.2 nM | [2H]c1c([2H])c(NC(=O)c2nc3c(n2C([2H])([2H])[2H])CCN(CCC24CCC(COC([2H])([2H])[2H])(CC2)C4)C3)c(Cl)c(-c2c([2H])c([2H])c([2H])c(NC(=O)c3nc4c(n3C([2H])([2H])[2H])CCN(CCC35CCC(C(=O)O)(CC3)C5)C4)c2Cl)c1[2H] [Compound I-13, 4-(2-(2-((2,2′-dichloro-3′-(5-(2-(4-((methoxy-d3)methyl)bicyclo[2.2.1]heptane-1-yl)ethyl)-1-(methyl-d3)-4,5,6,7-tetrahydro-1H-imidazo[4,5-c]pyridine-2-carboxamido)-[1,1′-biphenyl]-3-yl-4,4′, 5,5′,6,6′-d6)carbamoyl)-1-(methyl-d3)-1,4,6,7-tetrahydro-5H-imidazo[4,5-c]pyridin-5-yl)ethyl)bicyclo[2.2.1]heptane-1-carboxylic acid] |
| 19.8 nM | [2H]C([2H])([2H])OCC12CCC(CCN3CCc4c(nc(C(=O)Nc5cccc(-c6cccc(NC(=O)c7nc8c(n7C)CCN(CCC79CCC(C(=O)O)(CC7)C9)C8)c6Cl)c5F)n4C)C3)(CC1)C2 (single isomer, unassigned) [Compound I-2, 4-(2-(2-((2-chloro-2′-fluoro-3′-(5-(2-(4-((methoxy-d3)methyl)bicyclo[2.2.1]heptane-1-y 1)ethyl)-1-methyl-4,5,6,7-tetrahydro-1H-imidazo[4,5-c]pyridine-2-carboxamido)-[1,1′-biphenyl]-3-yl)carbamoyl)-1-methyl-1,4,6,7-tetrahydro-5H-imidazo[4,5-c]pyridin-5-yl)ethyl)bicyclo[2.2.1]heptane-1-carboxylic acid] |
| 15.1 nM | [2H]c1c([2H])c(NC(=O)c2nc3c(n2C)CCN(CCC24CCC(COC([2H])([2H])[2H])(CC2)C4)C3)c(F)c(-c2c([2H])c([2H])c([2H])c(NC(=O)c3nc4c(n3C)CCN(CCC35CCC(C(=O)O)(CC3)C5)C4)c2Cl)c1[2H] (single isomer, unassigned) [Compound I-14, 4-(2-(2-((2-chloro-2′-fluoro-3′-(5-(2-(4-((methoxy-d3)methyl)bicyclo[2.2.1]heptane-1-y 1)ethyl)-1-methyl-4,5,6,7-tetrahydro-1H-imidazo[4,5-c]pyridine-2-carboxamido)-[1,1′-biphenyl]-3-yl-4,4′,5,5′,6,6′-d6)carbamoyl)-1-methyl-1,4,6,7-tetrahydro-5H-imidazo[4,5-c]pyridin-5-yl)ethyl)bicyclo[2.2.1]heptane-1-carboxylic acid] |
| 9.72 nM | [2H]C([2H])([2H])OCC12CCC(CCN3CCc4c(nc(C(=O)Nc5cccc(-c6cccc(NC(=O)c7nc8c(n7C)CCN(CCC79CCC(C(=O)O)(CC7)C9)C8)c6Cl)c5C)n4C)C3)(CC1)C2 [Compound I-4, 4-(2-(2-((2-chloro-3′-(5-(2-(4-((methoxy-d3)methyl)bicyclo[2.2.1]heptane-1-yl)ethyl)-1-methyl-4,5,6,7-tetrahydro-1H-imidazo[4,5-c]pyridine-2-carboxamido)-2′-methyl-[1,1′-biphenyl]-3-yl)carbamoyl)-1-methyl-1,4,6,7-tetrahydro-5H-imidazo[4,5-c]pyridin-5-yl)ethyl)bicyclo[2.2.1]heptane-1-carboxylic acid] |
